Assay results: PMC5349447, “Applying a high-throughput fluorescence polarization assay for the discovery of chemical probes blocking La:RNA interactions in vitro and in cells” (PLoS ONE, 2017)

What was measured:
Assay type in all cases: cell-based, human
[1] = tested on: Bcl2 protein level in SCC 22A cells; experiment: Immunoblot for Bcl2, SCC 22A; conditions: cisplatin and C2.01 (50 μM) versus vehicle
[2] = tested on: T1, gfp-tagged La-WT association with cellular mRNAs; experiment: RNA immunoprecipitation (RIP) with RT-qPCR in HEK293 expressing gfp-tagged La; conditions: 150 μM, HEK293 gfpLa
T1 construct: full length La (La wildtype, La-WT); expressed in transfected cells
Protocol: RIP experiments were performed with HEK293 stably expressing gfp (green fluorescent protein)-tagged La wiltype (La-WT) protein as described recently. The compound C2:01 was dissolved in 100% DMSO to a concentration of 100 mM. Subsequently, the compound was diluted in media to 10 mM (10% DMSO) and 1 mM (1% DMSO). The 1 mM stock was diluted 6.7-fold in culture media to reach a final concentration of 150 μM (0.15% DMSO). Cells were washed with ice-cold 1x PBS, and lysed by incubating with lysis buffer (20 mM Tris-HCl, (pH 7.4), 150 mM NaCl, 1% IGEPAL CA-630, 10% glycerol, 1 mM EDTA, 50mM NaF, and 1 mM DTT, supplemented with RNase inhibitors and protease inhibitors) on tube rotator for 15 min at 4°C. The cell lysate was sonicated (3 sec for 10 times at power 3, Sonic Dismembrator Model 100) and cleared by centrifugation at 14,000 g at 4°C for 20 min. The cleared lysate was incubated with anti-gfp magnetic beads (MBL International) on the orbital rotor at 4°C overnight. The beads were washed four times with wash buffer I (50 mM Tris-HCl (pH 7.4), 300 mM NaCl, 0.05% IGEPAL CA-630, 20 mM EDTA, 1 mM DTT, and 1 mM MgCl2) and three times with wash buffer II (50 mM Tris-HCl (pH 7.4), 300 mM NaCl, 0.05% IGEPAL CA-630, 20 mM EDTA, 1 mM DTT, 1 mM MgCl2 and 1 M urea)[29].
For preparation of the RNA, the beads were resuspended in wash buffer II and RNA was extracted by applying the Phenol-Chloroform-Isoamyl alcohol method. […] The RNA pellet was dissolved in RNase-DNase-free H2O and quantitated by NanoDrop spectrophotometer and subjected to RT-qPCR analysis. By RT-qPCR the La-specific RIP-RNA pellets (gfp-tagged La) were tested for the presence of Bcl2, CCND1, L37, L22 and S6 mRNA and none of those were detected in the control RIP experiments (gfp alone). The enrichment was calculated by establishing standard curves for specific mRNAs using the RT^2 qPCR Primer Assays (Qiagen): Bcl2 (PPH00079B), CCND1 (PPH00128F), L37 (QT00014105), L22 (QT00079982), S6 (QT02505328) as described recently. […]

HEK293 cells = experiment: HEK293 cell proliferation and viability; conditions: data not shown
SCC 22B cells = experiment: Cisplatin sensitization, CyQUANT, SCC 22B; conditions: 50 μM C2.01 pretreatment
Protocol: To test whether compound C2.01 sensitizes cells for cisplatin, cells were treated with 0.2% DMSO alone, cisplatin at 4, 8, 16, 32 or 64 μM concentration alone or in combination with 50 μM compound C2.01. The half maximal inhibitory concentration (IC50) of cisplatin was determined by treating SCC 22B cells with increasing cisplatin (Selleckchem) concentrations or vehicle (DMSO) for 48 h (96-well format) as described recently. For this experiments 1x10^4 SCC 22B cells were plated the day before the experiment. DMSO or C2.01 was added to a final concentration of DMSO (0.05%) and C2.01 (50 μM). Six hours later the different cisplatin concentrations were added. The highest DMSO concentration of 0.25% was used in the control for cisplatin and C2.01 double treatment. Subsequently, cells were washed twice with 1x PBS and quantified after staining with fluorescence dye (CyQUANT®, Life Technologies) 48 after the initial C2.01 treatment.

[3] = tested on: Bcl2 protein level in SCC 22B cells; experiment: Immunoblot for Bcl2, SCC 22B; conditions: cisplatin and C2.01 (50 μM) versus vehicle
SCC 22A cells = experiment: Phase contrast microscopy and cisplatin IC50, SCC 22A; conditions: C2.01 (50 μM) combined with cisplatin 12 μM

## Cc1ccc(C(=O)c2ccccc2C(=O)O)c(O)c1 [C2.01, 2-(2-hydroxy-4-methylbenzoyl)benzoic acid]
[1]
  Bcl2 protein levels (immunoblot): reduced
[2]
  binding of La to Bcl2 mRNA in cells (RIP): selectively impaired
  binding of La to CCND1 mRNA in cells (RIP): selectively impaired
  binding of La to TOP mRNAs encoding RPL37, RPL5 and RPSK6 in cells (RIP): no effect
HEK293 cells; 150 μM or below
  cell proliferation and viability of HEK293 cells: not
HEK293 cells; 300 or 450 μM
  cell proliferation and viability of HEK293 cells: impaired
SCC 22B cells
  sensitization of SCC 22B cells for cisplatin treatment: sensitizes
[3]
  Bcl2 protein levels (immunoblot): reduced
SCC 22A cells
  cell number by phase contrast images: dramatically reduced cell number
